Our source for the IC50 values is US20240376100A1 (Redona Therapeutics, Inc., priority 2021, published 2024).

pIC50: −log10 of the molar value.

The target of this test is PAPD5 enzyme (Homo sapiens, UniProt Q8NDF8). As to the kind of experiment: PAPD5 assay (AMP incorporation onto 3'-terminus of RNA substrate, fluorescence quench). The class given is biochemical. Conditions: PAPD5 protein 0.3 nM, ATP 50 μM, 30 minutes preincubation, room temperature; read-out: Potency PAPD5 IC50. Summed up:
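Enzyme at 0.3 nM with 50 μM ATP, pH 7.3 HEPES buffer, preincubated with compound 30 minutes at room temperature; 5 nM 5′-fluorescein RNA substrate and 20 nM TAMRA quench probe then added. Initial rates from kinetic fluorescein decrease over ~90 minutes; IC50 by four-parameter fit.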

Chain of PAPD5 enzyme (Q8NDF8 whole entry): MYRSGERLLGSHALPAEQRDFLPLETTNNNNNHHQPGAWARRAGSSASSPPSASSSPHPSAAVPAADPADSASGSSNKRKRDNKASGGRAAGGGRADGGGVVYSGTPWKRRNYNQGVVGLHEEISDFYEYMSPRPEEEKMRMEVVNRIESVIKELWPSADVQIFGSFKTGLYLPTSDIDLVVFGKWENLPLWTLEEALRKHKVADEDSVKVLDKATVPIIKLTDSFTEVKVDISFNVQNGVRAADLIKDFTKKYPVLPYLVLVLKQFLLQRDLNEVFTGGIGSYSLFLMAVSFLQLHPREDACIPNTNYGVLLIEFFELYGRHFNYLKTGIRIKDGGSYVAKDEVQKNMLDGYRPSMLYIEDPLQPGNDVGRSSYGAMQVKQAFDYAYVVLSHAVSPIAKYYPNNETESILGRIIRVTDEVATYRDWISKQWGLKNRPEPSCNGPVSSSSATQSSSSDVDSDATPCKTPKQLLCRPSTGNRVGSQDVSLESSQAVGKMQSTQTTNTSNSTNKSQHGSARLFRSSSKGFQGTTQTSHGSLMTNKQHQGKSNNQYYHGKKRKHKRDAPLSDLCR

As a reminder, the pIC50 is the IC50 on a negative log10 scale, so that one unit is a factor of ten. Turning to `Cc1cc(N2CCC2)ncc1-n1cc(C(=O)O)c(=O)c2cc(F)c(N3Cc4cccnc4C3)nc21` [Example 183, 1-(6-(azetidin-1-yl)-4-methylpyridin-3-yl)-7-(5,7-dihydro-6H-pyrrolo[3,4-b]pyridin-6-yl)-6-fluoro-4-oxo-1,4-dihydro-1,8-naphthyridine-3-carboxylic acid], the pIC50 was at least 6.00. Under `CC(C)(C)OC(=O)N1CCC(Cn2cc(C(=O)O)c(=O)c3cc(Cl)c(N4Cc5cccnc5C4)nc32)CC1` [Example 72, 1-((1-(tert-butoxycarbonyl)piperidin-4-yl)methyl)-6-chloro-7-(5,7-dihydro-6H-pyrrolo[3,4-b]pyridin-6-yl)-4-oxo-1,4-dihydro-1,8-naphthyridine-3-carboxylic acid] stands at least 6.00; under `Cc1cc(N(C)C)ncc1-n1cc(C(=O)O)c(=O)c2cc(Cl)c(N3Cc4cccnc4C3)nc21` [Example 146, 6-chloro-7-(5,7-dihydro-6H-pyrrolo[3,4-b]pyridin-6-yl)-1-(6-(dimethylamino)-4-methylpyridin-3-yl)-4-oxo-1,4-dihydro-1,8-naphthyridine-3-carboxylic acid], at least 6.00; under `O=C(O)c1cn(Cc2cccnc2)c2nc(N3Cc4cccnc4C3)c(Cl)cc2c1=O` [Example 67, 6-chloro-7-(5,7-dihydro-6H-pyrrolo[3,4-b]pyridin-6-yl)-4-oxo-1-(pyridin-3-ylmethyl)-1,4-dihydro-1,8-naphthyridine-3-carboxylic acid], at least 6.00. Under `Cc1cc(NC(=O)OC(C)(C)C)ncc1-n1cc(C(=O)O)c(=O)c2cc(Cl)c(N3Cc4cccc(F)c4C3)nc21` [Example 166, 1-(6-((tert-butoxycarbonyl)amino)-4-methylpyridin-3-yl)-6-chloro-7-(4-fluoroisoindolin-2-yl)-4-oxo-1,4-dihydro-1,8-naphthyridine-3-carboxylic acid] stands at least 6.00. Under `COc1cccc2c1CN(c1nc3c(cc1Cl)c(=O)c(C(=O)O)cn3-c1cnc(N)cc1C)C2` [Example 178, 1-(6-amino-4-methylpyridin-3-yl)-6-chloro-7-(4-methoxyisoindolin-2-yl)-4-oxo-1,4-dihydro-1,8-naphthyridine-3-carboxylic acid] stands at least 6.00.
